According to patent US20100061928A1, “LABELLED ANALOGUES OF HALOBENZAMIDES AS RADIOPHARMACEUTICALS” (Institut National De La Sante et De La Recherche Medicale …, priority 2006, published 2010):
Counter-ions that a name gives are not always drawn.

What was measured:
murine melanoma (B16 F0) = assay: Cytotoxicity, Hoechst test, B16 F0; conditions: for IC50: read-out: IC50 B16, B16 F0 murine melanoma, 48 hours incubation, Hoechst test
Procedure: (§1) The B16 F0, M4Beu and fibroblast lines are cultured in 75 cm^2 dishes comprising 12 ml of Eagle's essential medium with Earle's salts and Glutamax (Gibco-BRL, Paisley, Scotland) supplemented with 10% foetal calf serum, a solution of vitamins at 1× (Gibco), 1 mM sodium pyruvate (Gibco), a solution of nonessential amino acids at 1× (Gibco) and 4 μg/ml of gentamicin (antibiotic).
(§2) The cells are maintained at 37° C. in an incubator under an atmosphere comprising 5% CO2.
(§3) The cells (5×10^3) in 150 μl of culture medium are inoculated in 96-well plates (Nunclon™, Nunc, Roskilde, Denmark). […] The stock solutions (200×) are prepared with DMSO and are then stored at −20° C. 50 μl of a solution comprising stock solution and culture medium are subsequently added to the various wells (taking into account the different dilutions). Each test is carried out in triplicate.
The amount of cellular DNA is subsequently measured by the Hoechst test. The plates are then defrosted at ambient temperature for 10 minutes. 100 μl of a 0.01% (w/v) solution of SDS (sodium dodecyl sulphate) in sterile distilled water are subsequently added using a microvolume dispenser. The plates (96 well) are incubated with stirring at ambient temperature for 30 minutes and are then frozen at −80° C. for one hour. The plates are subsequently defrosted at ambient temperature for 20 minutes. […] The plates are then incubated for one hour at ambient temperature, with stirring and with the exclusion of light. The fluorescence obtained is measured using a Fluoroskan 96-well at the excitation wavelength at 360 nm and emission wavelength at 460 nm. Under these conditions, the fluorescence is proportional to the cell biomass in each well. The percentage of survival is defined by the fluorescence in each well (treated) with respect to the fluorescence of the control wells (drug-free), the blanks being subtracted (drug-free and cell-free wells).

[1] = system: human fibroblast cell lines; assay: Cytotoxicity, Hoechst test, human fibroblasts; conditions: read-out: IC50 Fibroblast; human fibroblasts, 48 hours incubation, Hoechst test
Procedure: as §1, §2, §3
(§4) The amount of cellular DNA is subsequently measured by the Hoechst test. […] The fluorescence obtained is measured using a Fluoroskan 96-well at the excitation wavelength at 360 nm and emission wavelength at 460 nm. Under these conditions, the fluorescence is proportional to the cell biomass in each well. The percentage of survival is defined by the fluorescence in each well (treated) with respect to the fluorescence of the control wells (drug-free), the blanks being subtracted (drug-free and cell-free wells).

human melanoma (M4Beu) = assay: Cytotoxicity, Hoechst test, M4Beu
Procedure: as §1, §2, §3, §4

[2] = system: B16 F0 murine melanoma cells; assay: Colony forming technique: chemotherapeutic and radiotherapeutic (^125I) effects in vitro; assay type: cell-based; conditions: for % of inhibition (Radiotherapeutic effects alone): 125I-labelled, high specific activity
Procedure: The colony forming technique is involved, that is to say the growth of colonies of clones starting from tumour cells (B16 F0 murine melanoma cells) inoculated at a low concentration. This method makes it possible to visualize the cytotoxic and cytostatic properties of the compounds studied. The study was carried out in three parts:
The experiment is carried out on 6-well plates where 200 cells are inoculated in 2 ml of DMEM medium. After 20 hours, the medium is withdrawn and replaced with 2 ml of medium comprising the labelled compound at the desired concentration. This study is carried out in comparison with control wells comprising DMEM medium alone. […] The plates are incubated for 8 days and then the medium is withdrawn. The wells are rinsed with PBS and methanol is added for 3 minutes. Once attached, the cells are coloured with crystal violet with a contact time of 3 minutes. Subsequently, the colonies comprising more than 50 cells are counted using a dedicated counter. The growth of the treated colonies of cells is quantified in comparison with the controls. The activity of the product is expressed by a percentage of inhibition:
100−[(number of treated colonies)/(number of control colonies)]×100

[3] = system: melanoma grafted subcutaneously (B16 F0 cells); assay: Antitumour effectiveness by systemic administration after labelling with ^131I; assay type: in vivo, C57BL6 mice
Procedure: The study relates to 20 C57B16 mice bearing a melanoma grafted subcutaneously by injection of 50 000 B16 F0 cells (0.1 ml). On the 17th day, the animals are weighed and the tumours are measured in two dimensions (L, l), the tumour volume being expressed by L×l^2×½. On the 18th day (D18), the mice are divided into two groups, the labelled compound [^131I]-31 with a high specific activity is administered by the i.v. route (37 MBq; 0.2 ml) to 10 mice and 10 constitute the control batch. The monitoring of the animals is carried out with all the necessary radioprotection measures and in particular the removal of the contaminated bedding, the animals are weighed and the tumours are measured every two days. Taking into account the volume of the tumours and ethical considerations, the surviving animals were euthenized on the 20th day after injection, i.e. 38 days after the tumour graft. […] The evaluation of the effectiveness of an i.v. administration of [^131I]-31 on tumour growth of C57BL6 mice which have received a subcutaneous graft of B 16 melanoma 18 days before treatment is represented in FIG. 2. The times on the abscissa are given with respect to the day of inoculation of the tumours and with respect to the day of treatment.
The evaluation of the effectiveness of an i.v. administration of [^131I]-46 on tumour growth of C57BL6 mice which have received a subcutaneous graft of B 16 melanoma is represented in FIG. 3. The times on the abscissa are given with respect to the day of inoculation of the tumours and with respect to the first day of treatment. Under these conditions, the median of survival is extended and changes from 32 days for the control animals to 39 days for the treated animals. This experiment was repeated according to the same protocol and fully superimposable results were obtained.

[4] = system: grafted B16 F0 murine melanoma tumour; assay: Biodistribution of the ^125I-labelled molecules in the melanoma-bearing mouse (autoradiography of whole-body sections)
tumour = assay: Dosimetry with regard to the tumour (MIRD programme, extrapolated to ^131I); conditions: for Effective period: extrapolated to 131I labelling; for Biological period: from biodistribution data
[5] = single i.v. administration 37 MBq on D18 after graft, versus controls

CN(C)CCNC(=O)c1cccc2cc3ccccc3nc12 [DACA, reference compound]
IC50 (murine melanoma (B16 F0)): 190 nM | IC50 [1]: 7100 nM | IC50 (human melanoma (M4Beu); read-out: IC50 M4Beu, M4Beu human melanoma, 48 hours incubation, Hoechst test): 1800 nM

CCN(CC)CCNC(=O)c1cccc2cc3cccc([125I])c3nc12.Cl.Cl [[^125I]-102, [^125I]-N-(2-diethylaminoethyl)-5-iodoacridine-4-carboxamide dihydrochloride]
% of inhibition (Radiotherapeutic effects alone) ([2]; 1.39 kBq, 8.625 pM): 11% | % of inhibition (Radiotherapeutic effects alone) ([2]; 2.78 kBq, 17.25 pM): 14.3% | % of inhibition (Radiotherapeutic effects alone) ([2]; 5.55 kBq, 34.5 pM): 40.3% | % of inhibition (Radiotherapeutic effects alone) ([2]; 11.1 kBq, 69 pM): 65.5% | % of inhibition (Radiotherapeutic effects alone) ([2]; 16.7 kBq, 103.5 pM): 79% | % of inhibition (Radiotherapeutic effects alone) ([2]; 22.2 kBq, […]): 96.1% | Cumulative effect (% inhib) (Radiotherapeutic and chemotherapeutic effects) ([2]; cold compound 102 at 6.25 nM with [125I]-102 1.39 kBq): 30% | Cumulative effect (% inhib) (Radiotherapeutic and chemotherapeutic effects) ([2]; cold compound 102 at 6.25 nM with [125I]-102 2.78 kBq): 37.5% | Cumulative effect (% inhib) (Radiotherapeutic and chemotherapeutic effects) ([2]; cold compound 102 at 6.25 nM with [125I]-102 5.55 kBq): 59.5% | Cumulative effect (% inhib) (Radiotherapeutic and chemotherapeutic effects) ([2]; cold compound 102 at 6.25 nM with [125I]-102 11.1 kBq): 76.5% | Cumulative effect (% inhib) (Radiotherapeutic and chemotherapeutic effects) ([2]; cold compound 102 at 6.25 nM with [125I]-102 16.7 kBq): 89%

CCN(CC)CCNC(=O)c1ccc2cc([131I])ccc2n1.Cl.Cl [[^131I]-31, [^131I]-N-(2-diethylaminoethyl)-6-iodoquinoline-2-carboxamide dihydrochloride]
median of survival (in words) [3, 5]: a significant difference regarding the median of survival was not demonstrated | tumour growth (in words) [3, 5]: markedly slowed down

CCN(CC)CCNC(=O)c1cnc2cc([131I])ccc2n1.Cl [[^131I]-46, [^131I]-N-(2-diethylaminoethyl)-6-iodoquinoxaline-2-carboxamide hydrochloride]
tumour growth (in words) ([3]; two doses of 18.5 MBq i.v., 6 and 10 days after induction of the tumours): clearly slowed down | median of survival, treated animals ([3]; two doses of 18.5 MBq i.v., 6 and 10 days after induction of the tumours, control animals 32 days): 39 days

COc1cc(NS(C)(=O)=O)ccc1Nc1c2ccccc2nc2ccccc12 [amsacrine, reference compound]
IC50 (murine melanoma (B16 F0)): 35 nM

CCN(CC)CCNC(=O)c1cccc2cc3cccc(I)c3nc12 [compound 102, N-(2-diethylaminoethyl)-5-iodoacridine-4-carboxamide dihydrochloride]
cytotoxic activity compared with DACA (in words) (murine melanoma (B16 F0); various cell lines studied (B16 F0, M4Beu, fibroblasts)): greater activity than the parent compound | Biodistribution, Mean, GB ([4]; 1 H): 281.34 | Biodistribution, Mean, GB ([4]; 6 H): 281.20 | Biodistribution, Mean, muscle ([4]; 1 H): 2.34 | Biodistribution, Mean, muscle ([4]; 3 H): 1.34 | Biodistribution, Mean, muscle ([4]; 6 H): 1.36 | Effective period (tumour): 35.4 h | Biological period (tumour): 43.3 hours

CCN(CC)CCNC(=O)c1cccc2c(Nc3ccc(NS(C)(=O)=O)cc3OC)c3cc(I)ccc3nc12 [compound 129, N-(2-diethylaminoethyl)-7-iodo-9-(4-methanesulphonamido-2-methoxyanilino)acridine-4-carboxamide dihydrochloride]
Biodistribution, Mean, GB ([4]; 1 H): 20.19 | Biodistribution, Mean, GB ([4]; 6 H): 166.43 | Biodistribution, Mean, brain ([4]; 1 H): 0.12 | Biodistribution, Mean, brain ([4]; 3 H): 0.03 | Biodistribution, Mean, muscle ([4]; 3 H): 0.48 | Biodistribution, Mean, muscle ([4]; 6 H): 0.44 | Biodistribution, Mean, thyroid ([4]; thyroid, 6 H): 34.81 | cytotoxic effectiveness (in words) (human melanoma (M4Beu); M4Beu human cells, compared with amsacrine): best effectiveness with regard to the M4Beu human cells, close to the values obtained for amscrine | Effective period (tumour): 88.3 h | Biological period (tumour): 162.3 hours
